Earlier results, collected in patent publication US20110171166A1, “POLYMER CONJUGATES OF O[…]” (Nektar Therapeutics, priority 2008, published 2011).

Key:
primary adipocytes = conditions: white and brown respectively
[1] = system: isolated pancreatic islets, a β cell line
WT mice = conditions: long-term treatment; gold thioglucose-induced hyperphagia and high-fat diet

osteocalcin
amount affecting adiponectin and Pgc1α expression in white and brown adipocytes (primary adipocytes): nanomolar amounts
amount sufficient to regulate the expression of the insulin genes and β cell proliferation markers [1]: picomolar amounts
effect on body mass and glucose metabolism (WT mice): significantly weaken the deleterious effect on body mass and glucose metabolism
